Patent US8906925B2, “Pyrido[4,3-B]indoles containing rigid moieties” (Medivation Technologies, Inc., priority 2008, dated 2014)
Where two headings read alike, the source gives them in different places.

Legend:
C57Bl/6J mice = test: PCP-induced hyperactivity, open field test; assay type: in vivo, mouse; settings: p.o. 30 min prior to PCP (5.0 mg/kg i.p.), 90 min. test
Experimental: One exemplary model for testing the activity of one or more compounds described herein to treat and/or prevent and/or delay the onset and/or development of schizophrenia employs phencyclidine (PCP), which is administered to the animal (e.g., non-primate (rat) or primate (monkey)), resulting in dysfunctions similar to those seen in schizophrenic humans. See Jentsch et al., 1997, Science 277:953-955 and Piercey et al., 1988, Life Sci. 43(4):375-385). Standard experimental protocols may be employed in this or in other animal models. One protocol involves PCP-induced hyperactivity.
Male C57Bl/6J mice from Jackson Laboratories (Bar Harbor, Me.) were used. Mice were received at 6-weeks of age. Upon receipt, mice were assigned unique identification numbers (tail marked) and were group housed with 4 mice/cage in OPTIMICE ventilated cages. All animals remained housed in groups of four during the remainder of the study. All mice were acclimated to the colony room for at least two weeks prior to testing and were subsequently tested at an average age of 8 weeks of age. During the period of acclimation, mice were examined on a regular basis, handled, and weighed to assure adequate health and suitability. Animals were maintained on a 12 h/12 h light/dark cycle. The room temperature was maintained between 20 and 23° C. with a relative humidity maintained between 30% and 70%. Food and water were provided ad libitum for the duration of the study. In each test, animals were randomly assigned across treatment groups.
The following compounds were used for this study: 1) Compound Nos 83, 88, 90 (0.03, 0.1, 0.3, 1, 3, 10 & 30 mg/kg) was dissolved in 5% PEG-200 in sterile water and administered p.o. 30 min prior to PCP injection; 2) Clozapine (1.0 mg/kg) was dissolved in 10% DMSO and administered i.p. 30 min prior to phencyclidine (PCP) injection; 3) PCP (5.0 mg/kg) was dissolved in sterile water and administered i.p. immediately before the 60 min. test. All compounds were administered at a dose volume of 10 mL/kg.
The open filed (OF) test assesses locomotor behavior, i.e. to measure mouse locomotor activity at baseline and in response to pharmacological agents. The open field chambers are Plexiglas square chambers (27.3×27.3×20.3 cm; Med Associates Inc., St Albans, Vt.) surrounded by infrared photobeams (16×16×16) to measure horizontal and vertical activity. […] Distance traveled was measured from horizontal beam breaks as the mouse moved whereas rearing activity was measured from vertical beam breaks. […]
Data were analyzed by analysis of variance (ANOVA) followed by post-hoc comparisons with Fisher Tests when appropriate. Baseline activity was measured during the first 30 min. of the test prior to PCP injection. PCP-induced activity was measured during the 60 min. following PCP injection. […]

male Wistar rat = test: Conditioned avoidance response (CAR) model; assay type: in vivo; settings: 0.1, 0.3, 1, 3, 10 and 20 mg/kg, p.o.
Experimental: All currently approved antipsychotic agents (typical and atypical) are known to have the ability to selectively suppress conditioned avoidance response (CAR) behavior in the rat. This evidence makes CAR one of the primary tests to assess antipsychotic activity of novel compounds.
The effects of Compound Nos. 83, 88 and 90, at concentrations including 0.1, 0.3, 1, 3, 10 and 20 mg/kg, p.o., in the conditioned avoidance response model were assessed in the male Wistar rat. Risperidone (0.3 mg/kg, s.c.) was used in the present study as a positive reference compound.
For each testing session, animals were first placed for a 4-min. habituation period in a shuttlebox with an electrified grid floor. Then, rats were submitted to 30 trials spaced by intertribal intervals varying at random between 20 and 30 sec. Each trial consisted of a 10-sec. light stimulus (conditioned stimulus, CS) followed by a 10-sec. electric foot shock (unconditioned stimulus, US) in presence of the light presented in the compartment where the rat is located. If the animal moved to the other compartment during the initial 10-sec. of the trial, the light was terminated (no shock was delivered) and the response was recorded as an avoidance response. If the rat changed compartment during the foot shock, the light and the shock were terminated and the response was recorded as an unconditioned response. […] If a response was made during an intertrial interval, the response was recorded as an intertrial crossing. Training was performed 5 days per week with one session of 30 trials per day, until rats reached the performance criterion of 80% of avoidance response on at least two consecutive daily sessions. […] A minimal wash-out period of 48 hours was allowed between 2 treatments. During the wash-out period, animals were trained until they recovered an avoidance performance of at least 80%.
Statistical analysis was performed using a Friedman two-way ANOVA by ranks followed by the Wilcoxon matched-pairs signed-ranks test to test each dose of the test compound administered versus vehicle control treated rats.

[1] = 0.03, 0.1, 0.3, 1 and 3 mg/kg p.o.
[2] = 0.03, 0.1, 0.3, 1, 3 and 10 mg/kg p.o.

Experimental for Sprague Dawley rats: The two-trial object recognition paradigm developed by Ennaceur and Delacour in the rat was used as a model of episodic short term memory.
The experiments were carried out using 174-186 male Sprague Dawley rats (Centre d'Elevage R. Janvier, B. P. 55, 53940 Le Genest-Saint-Isle, F.). 143-146 rats met inclusion criteria described in the experimental procedure. In addition, 24 satellite animals were used for pharmacokinetic analysis. The rats (main study and pharmacokinetic study) weighed between 233 and 283 g (6-7 weeks old) at the beginning of the experiments. […] Rats were allowed to acclimate to environmental conditions for at least 5 days prior to experimentation. Rats were numbered by marking their tail with indelible markers.
Each solution was prepared fresh each day of dosing. […] No corrective factor is required. […] PEG200 was dissolved in water for injection. The volume of administration was 10 mL/kg body weight for the oral route of administration and 5 mL/kg body weight for intraperitoneal route of administration. Each solution was prepared fresh each day of dosing.
The experimental arena is a square wooden box (60×60×40 cm) painted dark blue, with 15×15 cm black painted squares under a clear plexiglass floor. The arena and the objects were cleaned using water between each trial in order to avoid odour trails left by rats. The arena was placed in a dark room illuminated only by halogen lamps oriented towards the ceiling and giving an uniform dim light in the box (around 60 lux). Animals to be tested were placed in the experimental room at least 30 min before testing.
Rats were submitted to two trials spaced by an intertrial interval of 24 h. During the first trial (acquisition trial, T1), rats were placed in the arena containing 2 identical objects and time required by each animal to complete 15 sec. of object exploration was determined with a cut-off time of 4 min. Exploration was considered to be directing the nose at a distance less than 2 cm from the object and/or touching the object. For the second trial (testing trial, T2), one of the objects presented in the first trial was replaced by an unknown object (novel object), rats were placed back in the arena for 3 min and exploration of each object was determined. For both T1 and T2, locomotor activity of rats was scored.
Using group numbers of 18, rats were randomized to constitute the following groups: 1) Vehicle (5% PEG200 in water) p.o.; 2) Compound No. 88 or 90 (0.03 mg/kg) p.o.; 3.
The following parameters were measured: 1) Time required to achieve 15 sec. of object exploration on T1 (sec.); 2) Locomotor activity on T1 (number of crossed lines); 3) Time spent in active exploration of the familiar object on T2 (sec.)=TF; 4) Time spent in active exploration of the novel object on T2 (sec.)=TN; 5) Locomotor activity on T2 (number of crossed lines).
All parameters were analysed using SAS software (version 8.2). Statistical tests were performed with an alpha level of 0.05.

| SMILES | Total Distance Traveled (center+periphery), ANOVA (C57Bl/6J mice) | memory performance (TN−TF and RI) compared to vehicle, ANOVA + Dunnett's test (Sprague Dawley rats; 0.1 mg/kg p.o.) | memory performance (TN−TF and RI) compared to vehicle, ANOVA + Dunnett's test (Sprague Dawley rats; 1 mg/kg p.o.) | memory performance (TN−TF and RI values) (Sprague Dawley rats; [1]) | number of "good learners" (Δ≧5 sec.) (Sprague Dawley rats; [1]) | locomotor activity assessed during T1 and T2 (Sprague Dawley rats; rat, in vivo, po, 3 mg/kg) | number of avoidance responses versus pretreatment, compared to vehicle (male Wistar rat) | Total Rearing (center+periphery), ANOVA (C57Bl/6J mice) | memory performance (TN−TF and RI) compared to vehicle, ANOVA + Dunnett's test (Sprague Dawley rats; 0.3 mg/kg p.o.) | memory performance (TN−TF and RI values) (Sprague Dawley rats; [2]) | number of "good learners" (Δ≧5 sec.) (Sprague Dawley rats; [2]) | cognitive enhancing activity (delay of onset of natural forgetting) (Sprague Dawley rats; single oral administration 0.03, 0.1, 0.3, 1, 3 and 10 mg/kg, 30 min before T1) |
| --- | --- | --- | --- | --- | --- | --- | --- | --- | --- | --- | --- | --- |
| C/C(=C\n1c2c(c3cc(Cl)ccc31)CN(C)CC2)c1ccncc1 [Compound 90, (E)-8-chloro-2,3,4,5-tetrahydro-2-methyl-5-(2-(pyridin-4-yl)prop-1-enyl)-1H-pyrido[4,3-b]indole] | significant treatment effect | reached the threshold of statistical significance | reached the threshold of statistical significance | improved | confirmed the cognitive enhancing activity | no statistically significant effects | significantly and dose-dependently decreased | – | – | – | – | – |
| C/C(=C\n1c2c(c3cc(Cl)ccc31)CN(C)CC2)c1ccc(F)cc1 [Compound 83, (E)-8-chloro-5-(2-(4-fluorophenyl)prop-1-enyl)-2,3,4,5-tetrahydro-2-methyl-1H-pyrido[4,3-b]indole] | significant treatment effect | – | – | – | – | – | significantly and dose-dependently decreased | significant treatment effect | – | – | – | – |
| C/C(=C\n1c2c(c3cc(C)ccc31)CN(C)CC2)c1ccncc1 [Compound 88, (E)-2,3,4,5-tetrahydro-2,8-dimethyl-5-(2-(pyridin-4-yl)prop-1-enyl)-1H-pyrido[4,3-b]indole] | significant treatment effect | – | reached the threshold of statistical significance | – | – | – | significantly and dose-dependently decreased | – | reached the threshold of statistical significance | improved | confirmed the cognitive enhancing activity | displayed a cognitive enhancing activity |
